Measurements from patent publication US20090270401A1, “USE OF A DIHYDROIMIDAZOPYRAZOINE DERIVATIVE FOR TREATING OR PREVENTING PAIN” (Societe de Conseils de Recherches et D'Applications …, priority 2004, published 2009).

Key:
Assay type in all cases: in vivo
[1] = system: carrageenin-induced inflammatory hyperalgesia in a rat's paw; assay: Model of carrageenin-induced inflammatory hyperalgesia (Randall-Selitto test)
Protocol: The activity of compound (I) or its salt according to the invention has been evaluated in vivo on a model of carrageenin-induced inflammatory hyperalgesia in a rat's paw.
Male Sprague Dawley (Charles River) rats weighing approximately 200 g are housed for 5 to 8 days under animal room conditions and fasted on grids for 18 hours before and during the experiment. 4 groups are constituted by at least 6 animals. The products are administered by intravenous route (i.v., 1 ml/kg) 2 hours 30 minutes after the injection of carrageenin. Carrageenin at a concentration of 2 mg/0.1 ml was injected by sub-plantar route in the right rear paw of the rats (0.1 ml was injected per animal). The pain threshold (or nociceptive threshold) was evaluated by measuring the withdrawal of the rat's paw caused by a mechanical stimulus of increasing pressure (initial pressure 210 g/mm^2) applied using an analgesy meter (Randall-Selitto test). The measurements were taken just before the injection of carrageenin (t=−2 hours 30 minutes) and then at time 0.5 hours, 2 hours 30 minutes and 4 hours after injection of the products to be tested, which was carried out at t=0.
(§1) This effectiveness is statistically determined by a variance analysis test (one route) and/or a Dunnett's test (two routes).
The effective dose (ED50) was determined. By ED50, is meant the dose which reduces by half the pain induced in the model tested.

[2] = system: neuropathy induced by administration of an anti-cancer agent (paclitaxel (taxol)), on a rat's paw; assay: Model of neuropathy induced by administration of an anti-cancer agent (paclitaxel), Randall-Selitto test; conditions: significantly increased
Protocol: The activity of compound (I) or its salt according to the invention was evaluated in vivo on a model of neuropathy induced by administration of an anti-cancer agent (paclitaxel (taxol)), on a rat's paw.
Male Sprague Dawley (Charles River) rats weighing approximately 200 g are housed for 6 days under animal room conditions. 3 groups are constituted by at least 10 animals.
The neuropathy is induced by intra-peritoneal injections (i.p.) of 2 mg/kg of paclitaxel (extract of Taxus Yannanensis) on days D0, D2, D4 and D7.
Before the first injection, the rats are numbered and weighed and nociception is evaluated after a mechanical stimulus of increasing pressure: induction of an initial pressure (210 g/m^2) on the rats' two rear paws carried out using an analgesy meter according to the Randall and Selitto method. These measurements allow the base values to be defined before development of the neuropathy (D0). […]
On the day of the experiment, the rats are weighed, nociception is measured and the animals which have not developed the neuropathy on this day (reduction of nociception in comparison with the readings on D0) are excluded from the study. The product being tested is administered and nociception is measured at different times after its administration.

[3] = system: neuropathy induced by chronic constriction injury on the rat's paw; assay: Model of neuropathy induced by sciatic nerve lesion (chronic constriction injury), Randall-Selitto test
Protocol: The activity of compound (I) or its salt according to the invention was evaluated in vivo on a model of neuropathy induced by chronic constriction injury on the rat's paw.
Male Sprague Dawley (Charles River) rats weighing approximately 200 g are housed for 6 days under animal room conditions. Before the start of the experiment (day zero) the pain threshold (or nociceptive threshold) was evaluated by measuring the withdrawal of the rat's paw caused by a mechanical stimulus (initial pressure 210 g/mm^2) applied using an analgesy meter (Randall-Selitto test). This threshold is the pain base threshold. Then, also on day zero, the rats are rendered neuropathic by chronic constriction injury according to the Bennett and Xies (1988) method: 4 ligatures spaced at approximately 2 mm (monocryl suture; 5.0) are carried out on the sciatic nerve of the rat's right paw, above the trifurcation. This operation is carried out under general anaesthetic using isoflurane. […] On day 14 after the operation, the pain threshold was re-evaluated. […] The readings are taken at the following times: 0.5 hours 2.5 hours and 4 hours after injection of compound (I). […]
as §1
The effective dose (ED50) was determined. […]

[4] = Rattus norvegicus, iv, at time 0.5 hours, read-out: ED50 (dose which reduces by half the pain induced)

## N[C@@H](CSSC[C@H](N)C(=O)N1CCn2cc(-c3ccccc3)nc2[C@@H]1CC1CCCCC1)C(=O)N1CCn2cc(-c3ccccc3)nc2[C@@H]1CC1CCCCC1 [Compound (I), (1R)-1-[({(2R)-2-amino-3-[(8S)-8-(cyclohexylmethyl)-2-phenyl-5,6-dihydroimidazo[1,2-a]pyrazin-7(8H)-yl]-3-oxopropyl}dithio)methyl]-2-[(8S)-8-(cyclohexylmethyl)-2-phenyl-5,6-dihydroimidazo[1,2-a]pyrazin-7(8H)-yl]-2-oxoethylamine]
[1]; 1 mg/kg i.v., time 0.5 hours, control 240 g/mm^2, significantly increased
  pain threshold following a mechanical stimulus applied to the rats' paws: approximately 400 g/mm^2
[1]; [4]
  ED50: 0.42 mg/kg
[2]; 3 mg/kg i.v., time 0.5 hours, paclitaxel alone 250 g/mm^2
  pain threshold following a mechanical stimulus applied on the rats' paws: approximately 370 g/mm^2
[2]; 100 mg/kg p.o., time 1 hour, paclitaxel alone 240 g/mm^2
  pain threshold following a mechanical stimulus applied to the rats' paws: approximately 400 g/mm^2
[3]; 3 mg/kg i.v., time 0.5 hours, day 14 after operation, control 200 g/mm^2, significantly increased
  pain threshold following a mechanical stimulus applied to the rats' paws: approximately 320 g/mm^2
[3]; [4]
  ED50: 2.5 mg/kg
